# Reference: US9975853B2, “Tetrahydroisoquinolinone derivatives and their use in the inhibition of the HSP70 protein” (Julius-Maximilians-Universitaet Wuerzburg, priority 2014, dated 2018)
# Where two headings read alike, the source gives them in different places. Peptide text beside a SMILES is read from it. * marks the point of attachment. Cbz = O=C(OCc1ccccc1)*; CH2F = FC*
# Legend:
# INA-6 = assay: Cell viability assay (annexin V-FITC/propidium iodide, flow cytometry) in INA-6 multiple myeloma cells; type: cell-based, human; settings: for EC50: INA-6 multiple myeloma cells, 72 hours of treatment, viable cell fraction, mean of at least three determinations, read-out: INA-6 EC50(±sdv)
# Description: The effect of pharmacological Hsp70 inhibition on cell viability was analyzed after 72 hours of treatment in both non-malignant (mononuclear cells from the peripheral blood) and malignant lymphocytes (multiple myeloma cells). The mononuclear cells were separated from the peripheral blood of healthy donors by Ficoll-Hypaque density gradient centrifugation. The human cell line INA-6 represents a well-established model for multiple myeloma. The percentage of viable and apoptotic cell fractions was assessed using an annexin V-FITC/propidium iodide (PI) staining kit (Bender MedSystems, Vienna, Austria) according to manufacturer's instructions. In brief, cells were washed in PBS, incubated for 10 min in 100 ml binding buffer (10 mM HEPES/NaOH, pH 7.4, 140 mM NaCl, 2.5 mM CaCl2) containing 2.5 ml annexin V-FITC mix and 1 mg/ml propidium iodide (PI), subsequently diluted with 100 ml binding buffer and analyzed by flow cytometry (FACSCalibur/CELLQuest; Becton Dickinson, Heidelberg, Germany). Whereas viable cells are negative for both, annexin V-FITC and PI, early apoptotic cells show a positive annexin V-FITC staining, and cells in a late apoptotic stage which lose their membrane integrity additionally incorporate DNA-binding PI. To establish kill curves, concentrations of the tested compounds were titrated, and the measured viable cell fractions were further analyzed using the Prism Calculation Software (GraphPad Software Inc., La Jolla, USA).
# In FIG. 2A Western blot analyses of caspases 9 and 3, and the caspase substrate PARP (upper panel), and viability analyses (lower panel) of INA-6 MM cells upon treatment with trans-7b for 24 hours are shown. INA-6 cells were either incubated with DMSO (as a solvent control) or with 0.6 μM of trans-7b, and additionally incubated either with DMSO or the pan-caspase inhibitor Z-VAD-FMK prior to analyses by Western or viability assessment (without Z-VAD-FMK co-treatment) by Annexin V/propidum iodide double staining. For Western analyses INA-6 cell pellets were dissolved in lysis buffer (20 mM HEPES (pH 7.9), 350 mM NaCl, 1 mM MgCl2, 0.5 mM EDTA, 0.1 mM EGTA, 1% NP40, 0.5 mM dithiothreiol (DTT), 1 mM Na3VO4, 0.1 mM PMSF and 1 μg/ml aprotinin). Lysates were cleared by centrifugation, measured by quantitative protein assay (Bio-Rad, München, Germany) and subjected to SDS gel electrophoresis. Proteins were transferred onto nitrocellulose membranes (Schleicher & Schuell, Dassel, Germany), incubated with antibodies specific for caspase 9, caspase 3 or PARP (Cell Signaling Technology, Frankfurt a.Main, Germany) according to standard procedures and visualized with secondary anti-rabbit horseradish peroxidase (HRP)-conjugated antibodies using an enhanced chemoluminescence detection system (ECL, Amersham, Freiburg, Germany). […] Annexin V/propidium iodide (PI) staining was performed using a fluorescein isothiocyanate (FITC) conjugated recombinant human annexin/propidium iodide kit (BenderMedSystems, Vienna, Austria) according to the manufacturer's instructions. INA-6 cells were washed in PBS, incubated for 15 minutes in 100 ml binding buffer (10 mM HEPES/NaOH, pH 7.4, 140 mM NaCl, 2.5 mM CaCl2) containing 2.5 mL annexin V-FITC mix and 1 mg/ml PI and analyzed by flow cytometry (FACSCalibur/CELLQuest; Becton Dickinson, Heidelberg, Germany). Whereas early apoptosis is characterized by positive annexin V-FITC staining reaction, cells in a late apoptotic stage lose their membrane integrity and additionally incorporate PI. Thus, the fraction of viable cells remains negative for both annexin V-FITC and PI. […] Based on the above described experiments also viability analyses of INA-6 in comparison with non-malignant PBMCs were performed choosing a longer incubation time (72 hours) as shown in FIG. 2B or C. Raw data of three independent experiments have been calculated to establish means, standard deviation and dose-effect curves of trans-7b.
# caspases 9 and 3 = assay: Apoptosis assay: cleavage and activation of caspases 9 and 3, PARP cleavage in INA-6 cells (Western blot); type: cell-based, human; settings: INA-6, Z-VAD-FMK 50 μM
# Description: Apoptosis Assays. Hsp70-dependent prevention of apoptosis was investigated by analyses of the apoptosis-inducing factors (AIF) and of the caspases 9 and 3 in INA-6 cells. INA-6 cells were treated with 0.6 μM of compound trans-7b for 8 hours prior to analyze nuclear translocation of AIF. Staining of the nuclear protein lamin A was used as a loading control. […] Analysis of cleavage of the bona fide caspase substrate PARP served as a control for caspase activation. Co-treatment with the pan-caspase inhibitor Z-VAD-FMK (50 μM) was employed as another specificity control.
# In FIG. 2A Western blot analyses of caspases 9 and 3, and the caspase substrate PARP (upper panel), and viability analyses (lower panel) of INA-6 MM cells upon treatment with trans-7b for 24 hours are shown. […] Lysates were cleared by centrifugation, measured by quantitative protein assay (Bio-Rad, München, Germany) and subjected to SDS gel electrophoresis. […] INA-6 cells were washed in PBS, incubated for 15 minutes in 100 ml binding buffer (10 mM HEPES/NaOH, pH 7.4, 140 mM NaCl, 2.5 mM CaCl2) containing 2.5 mL annexin V-FITC mix and 1 mg/ml PI and analyzed by flow cytometry (FACSCalibur/CELLQuest; Becton Dickinson, Heidelberg, Germany). […] Raw data of three independent experiments have been calculated to establish means, standard deviation and dose-effect curves of trans-7b.
Compound,melting point,"EC50 (INA-6; Homo sapiens, INA-6, 72 h)",EC50 (INA-6),caspase activation and PARP cleavage under co-treatment with trans-7b (caspases 9 and 3),"trans-7b-induced induction of apoptosis under co-incubation (INA-6; INA-6, Z-VAD-FMK 50 μM with trans-7b 0.6 μM)"
"O=C(O)C1c2ccccc2C(=O)N(c2ccccc2)C1c1ccccc1 (stereo not drawn) [trans-5a, trans-2,3-Diphenyl-1-oxo-1,2,3,4-tetrahydroisoquinoline-4-carboxylic acid]",226 to 229 °C,6.9 µM,–,–,–
"COc1ccc(N2C(=O)c3ccccc3C(C(=O)O)C2c2ccccc2)cc1 (stereo not drawn) [trans-5c, trans-2-(4-Methoxyphenyl)-1-oxo-3-phenyl-1,2,3,4-tetrahydroisoquinoline-4-carboxylic acid]",106 to 118 °C,–,57 µM,–,–
"COc1ccc(C2C(C(=O)O)c3ccccc3C(=O)N2c2ccccc2)cc1 (stereo not drawn) [trans-5b, trans-3-(4-Methoxyphenyl)-1-oxo-2-phenyl-1,2,3,4-tetrahydroisoquinoline-4-carboxylic acid]",171 to 173 °C,1.3 µM,–,–,–
"COC(=O)C[C@H](NC(=O)[C@H](C)NC(=O)[C@@H](NC(=O)OCc1ccccc1)C(C)C)C(=O)CF [Z-VAD-FMK, reference compound] (Cbz-Val-Ala-Asp(OMe)-CH2F)",–,–,–,sufficiently inhibited,largely prevented

# Continued, in another order:
melting point,"EC50 (INA-6; Homo sapiens, INA-6, 72 h)",EC50 (INA-6),Compound,caspase activation and PARP cleavage under co-treatment with trans-7b (caspases 9 and 3),"trans-7b-induced induction of apoptosis under co-incubation (INA-6; INA-6, Z-VAD-FMK 50 μM with trans-7b 0.6 μM)"
208 to 209 °C,> 100 µM,–,"COc1ccc(N2C(=O)c3ccccc3C(C(=O)O)C2c2ccccc2)cc1 (stereo not drawn) [cis-5c, cis-2-(4-Methoxyphenyl)-1-oxo-3-phenyl-1,2,3,4-tetrahydroisoquinoline-4-carboxylic acid]",–,–
232 to 233 °C,–,> 100 µM,"COc1ccc(C2C(C(=O)O)c3ccccc3C(=O)N2c2ccc(OC)cc2)cc1 (stereo not drawn) [cis-5d, cis-2,3-Bis(4-methoxyphenyl)-1-oxo-1,2,3,4-tetrahydroisoquinoline-4-carboxylic acid]",–,–
